# Assay results reported in PubChem BioAssay (NCI).
#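 Cultured in 96-well plates, cells were exposed to test compound for 48 hours across five concentrations. Abbreviation: GI50, concentration required for 50% inhibition of growth. The concentration for full growth arrest is given as TGI.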
# Tests used:
# Experiment in all cases: inhibition of tumour cell growth, NCI panel, 48 h
# [1] = tested on: MDA-N
# [2] = tested on: A549 NSCLC
# [3] = tested on: SW-620 colon
# [4] = tested on: CAKI-1 renal
# [5] = tested on: MOLT-4 leukemia
# [6] = tested on: 786-0 renal
# [7] = tested on: HCC-2998 colon
# [8] = tested on: SK-OV-3 ovarian
# [9] = tested on: CCRF-CEM leukemia
# [10] = tested on: TK-10 renal
# [11] = tested on: M14 melanoma
# [12] = tested on: DU-145 prostate
# [13] = tested on: KM12 colon
# [14] = tested on: SK-MEL-28 melanoma
# [15] = tested on: COLO 205 colon
# [16] = tested on: UACC-62 melanoma
# [17] = tested on: EKVX NSCLC
# [18] = tested on: SNB-75 CNS
# [19] = tested on: SF-295 CNS
# [20] = tested on: NCI-H23 lung
# [21] = tested on: SK-MEL-5 melanoma
# [22] = tested on: MDA-MB-231 breast
# [23] = tested on: SF-268 CNS
# [24] = tested on: UACC-257 melanoma
# [25] = tested on: HCT-15 colon
# [26] = tested on: PC-3 prostate
# [27] = tested on: SR leukemia
# [28] = tested on: HL-60(TB) leukemia
# [29] = tested on: OVCAR-8 ovarian
# [30] = tested on: T-47D breast
# [31] = tested on: MALME-3M melanoma
# [32] = tested on: K-562 leukemia
# [33] = tested on: HT29 colon
# [34] = tested on: IGROV1 ovarian
# [35] = tested on: HOP-62 NSCLC
# [36] = tested on: RPMI-8226 leukemia
# [37] = tested on: SN12C renal
# [38] = tested on: MCF7 breast
# [39] = tested on: RXF 393 renal
# [40] = tested on: UO-31 renal
# [41] = tested on: SNB-19 CNS
# [42] = tested on: NCI/ADR-RES ovarian
# [43] = tested on: NCI-H226 lung
# [44] = tested on: HOP-92 NSCLC
# [45] = tested on: LOX IMVI melanoma
# [46] = tested on: NCI-H460 lung
# [47] = tested on: HS 578T breast
# [48] = tested on: MDA-MB-435
# [49] = tested on: U251 CNS
# [50] = tested on: NCI-H522 lung
# [51] = tested on: SF-539 CNS
# [52] = tested on: A498 renal
# [53] = tested on: BT-549 breast
# [54] = tested on: OVCAR-4 ovarian
# [55] = tested on: HCT-116 colon
# [56] = tested on: OVCAR-3 ovarian
# [57] = tested on: SK-MEL-2 melanoma
# [58] = tested on: OVCAR-5 ovarian
# [59] = tested on: ACHN renal
smiles,measurement,setting,value
N#Cc1ccc(NC(=NCC(=O)O)Nc2ccc3ccccc3c2)cc1,TGI,[1],> 10 µM
same,TGI,[2],> 10 µM
same,TGI,[3],> 10 µM
same,TGI,[4],> 10 µM
same,TGI,[5],> 10 µM
same,TGI,[6],> 10 µM
same,TGI,[7],> 10 µM
same,TGI,[8],> 10 µM
same,TGI,[9],> 10 µM
same,TGI,[10],> 10 µM
same,TGI,[11],> 10 µM
same,TGI,[12],> 10 µM
same,TGI,[13],> 10 µM
same,TGI,[14],> 10 µM
same,TGI,[15],> 10 µM
same,TGI,[16],> 10 µM
same,TGI,[17],> 10 µM
same,TGI,[18],> 10 µM
same,TGI,[19],> 10 µM
same,TGI,[20],> 10 µM
same,TGI,[21],> 10 µM
same,TGI,[22],> 10 µM
same,TGI,[23],> 10 µM
same,TGI,[24],> 10 µM
same,TGI,[25],> 10 µM
same,TGI,[26],> 10 µM
same,TGI,[27],> 10 µM
same,TGI,[28],> 10 µM
same,TGI,[29],> 10 µM
same,TGI,[30],> 10 µM
same,TGI,[31],> 10 µM
same,TGI,[32],> 10 µM
same,TGI,[33],> 10 µM
same,TGI,[34],> 10 µM
same,TGI,[35],> 10 µM
same,TGI,[36],> 10 µM
same,TGI,[37],> 10 µM
same,TGI,[38],> 10 µM
same,TGI,[39],> 10 µM
CN1CCN(Cc2ccc(NC(=O)c3cncc(C#Cc4c(N)ncc5ccc(F)cc45)c3)cc2C(F)(F)F)CC1,GI50,[40],0.688 µM
same,TGI,[40],1.5 µM
same,GI50,[41],3.47 µM
same,TGI,[41],12 µM
same,GI50,[42],1.89 µM
same,TGI,[42],5.83 µM
same,GI50,[2],0.96 µM
same,TGI,[2],6.21 µM
same,GI50,[43],0.4 µM
same,TGI,[43],1.75 µM
same,GI50,[3],0.206 µM
same,TGI,[3],1.13 µM
same,GI50,[4],1.06 µM
same,TGI,[4],5.68 µM
same,GI50,[5],0.234 µM
same,TGI,[5],3.03 µM
same,GI50,[44],0.0285 µM
same,TGI,[44],0.322 µM
same,GI50,[6],0.911 µM
same,TGI,[6],1.81 µM
same,GI50,[45],0.303 µM
same,TGI,[45],1.05 µM
same,GI50,[7],0.653 µM
same,TGI,[7],9.66 µM
same,GI50,[8],5.96 µM
same,TGI,[8],13.6 µM
same,GI50,[9],0.553 µM
same,TGI,[9],3.73 µM
same,GI50,[10],0.96 µM
same,TGI,[10],2.29 µM
same,GI50,[11],0.194 µM
same,TGI,[11],0.857 µM
same,GI50,[12],1.45 µM
same,TGI,[12],7.02 µM
same,GI50,[13],0.005 µM
same,TGI,[13],0.939 µM
same,GI50,[14],0.621 µM
same,TGI,[14],1.37 µM
same,GI50,[46],0.647 µM
same,TGI,[46],3.33 µM
same,GI50,[15],0.206 µM
same,TGI,[15],3.32 µM
same,GI50,[47],0.512 µM
same,TGI,[47],1.93 µM
same,GI50,[16],0.64 µM
same,TGI,[16],1.81 µM
same,GI50,[17],2.83 µM
same,TGI,[17],10.6 µM
same,GI50,[48],0.18 µM
same,TGI,[48],0.876 µM
same,GI50,[49],1.05 µM
same,TGI,[49],4 µM
same,GI50,[50],1.75 µM
same,TGI,[50],11.5 µM
same,GI50,[18],0.721 µM
same,TGI,[18],2.66 µM
same,GI50,[51],0.628 µM
same,TGI,[51],2.65 µM
same,GI50,[19],4.37 µM
same,TGI,[19],13 µM
same,GI50,[20],0.574 µM
same,TGI,[20],4.58 µM
same,GI50,[21],0.69 µM
same,TGI,[21],1.36 µM
same,GI50,[52],0.299 µM
same,TGI,[52],1.26 µM
same,GI50,[22],0.24 µM
same,TGI,[22],1.15 µM
same,GI50,[53],2.14 µM
same,TGI,[53],8.66 µM
same,GI50,[23],0.783 µM
same,TGI,[23],2.43 µM
same,GI50,[24],0.694 µM
same,TGI,[24],1.69 µM
same,GI50,[25],0.487 µM
same,TGI,[25],6.85 µM
same,GI50,[26],1.23 µM
same,TGI,[26],3.78 µM
same,GI50,[27],0.809 µM
same,TGI,[27],11.3 µM
same,GI50,[28],0.0758 µM
same,TGI,[28],1.98 µM
same,GI50,[54],0.825 µM
same,TGI,[54],3.87 µM
same,GI50,[55],0.211 µM
same,TGI,[55],1.37 µM
same,GI50,[29],1.76 µM
same,TGI,[29],8.03 µM
same,GI50,[30],23.8 µM
same,TGI,[30],50 µM
same,GI50,[31],0.166 µM
same,TGI,[31],0.743 µM
same,GI50,[56],4.07 µM
same,TGI,[56],16.5 µM
same,GI50,[57],0.479 µM
same,TGI,[57],2.55 µM
same,GI50,[58],0.524 µM
same,TGI,[58],1.27 µM
same,GI50,[32],0.005 µM
same,TGI,[32],1.07 µM
same,GI50,[33],0.126 µM
same,TGI,[33],0.789 µM
same,GI50,[34],0.369 µM
same,TGI,[34],6.43 µM
same,GI50,[35],1.17 µM
same,TGI,[35],4.67 µM
same,GI50,[59],0.562 µM
same,TGI,[59],1.27 µM
same,GI50,[36],0.757 µM
same,TGI,[36],3.87 µM
same,GI50,[37],0.937 µM
same,TGI,[37],5.3 µM
same,GI50,[38],0.297 µM
same,TGI,[38],1.53 µM
same,GI50,[39],0.642 µM
same,TGI,[39],1.39 µM
CSc1nc(Cl)c2c(n1)Sc1ncnn1C2O (configuration not stated),TGI,[40],5.24 µM
same,TGI,[1],20.5 µM
same,TGI,[41],45.2 µM
same,TGI,[42],54.6 µM
same,TGI,[2],36.9 µM
same,TGI,[3],36.3 µM
same,TGI,[4],25.4 µM
same,TGI,[5],27.1 µM
same,TGI,[44],30.3 µM
same,TGI,[6],9.08 µM
same,TGI,[45],21.1 µM
same,TGI,[7],27.4 µM
same,TGI,[8],42.2 µM
same,TGI,[9],10.9 µM
same,TGI,[10],31.2 µM
same,TGI,[11],29 µM
same,TGI,[12],19.2 µM
same,TGI,[14],> 100 µM
same,TGI,[46],46.4 µM
same,TGI,[15],62.7 µM
same,TGI,[47],23.2 µM
same,TGI,[16],26.3 µM
same,TGI,[17],36.3 µM
same,TGI,[48],15.9 µM
same,TGI,[49],33.9 µM
same,TGI,[50],4.23 µM
same,TGI,[51],15.5 µM
same,TGI,[20],30.9 µM
same,TGI,[52],38.1 µM
same,TGI,[22],31.6 µM
same,TGI,[53],28.8 µM
same,TGI,[23],26.7 µM
same,TGI,[24],45.7 µM
same,TGI,[25],18.4 µM
same,TGI,[26],27.7 µM
same,TGI,[27],> 100 µM
same,TGI,[28],14.8 µM
same,TGI,[54],29.6 µM
same,TGI,[55],17.1 µM
same,TGI,[29],15.7 µM
same,TGI,[31],8.22 µM
same,TGI,[56],20.1 µM
same,TGI,[57],41.8 µM
same,TGI,[58],32.3 µM
same,TGI,[32],30.6 µM
same,TGI,[33],28.4 µM
same,TGI,[34],34.2 µM
same,TGI,[35],41.1 µM
same,TGI,[59],15.4 µM
same,TGI,[37],24 µM
same,TGI,[38],16 µM
same,TGI,[39],5.63 µM
